Like-named read-outs stand apart in the source and are kept apart here.
Columns and labels:
[1] = Metabolic stability in human liver microsomes; settings: 1 μM test compound, 0.5 mg/mL microsomal protein; 6.15 mL/min/kg is the limitation of assay sensitivity
In short: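 Test compound at 1 μM with 0.5 mg/mL microsomal protein in 100 mM potassium phosphate, pH 7.4, 37 °C, 10 min preincubation, reaction started with NADPH regenerating system. Sampled at 0, 3, 6, 9, 15 and 30 min, quenched with cold ACN, remaining parent by LC-MS/MS. No-NADPH controls at 0 and 30 min.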

human TLR7 = human TLR7 (Homo sapiens (Human), UniProt Q9NYK1); test: HEK-Blue-hTLR7 cells assay (SEAP reporter); assay type: cell-based; settings: 20 hrs, read-out: HEK-Blue-hTLR7 (EC50 (μM))
In short: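 HEK-Blue cells stably carrying human TLR7 and an NF-κB-driven SEAP reporter, preincubated 24 h, then exposed to serially diluted compound (1% DMSO final) for 20 h at 37 °C. Supernatant SEAP measured with QUANTI-Blue substrate, 2 h at 37 °C, absorbance read at 620–655 nm.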

hERG channel = hERG channel (Homo sapiens (Human), UniProt Q12809); test: hERG channel inhibition assay (patch-clamp, CHOhERG cells); assay type: cell-based
Description: The hERG K^+ channels were cloned in humans and stably expressed in a CHO (Chinese hamster ovary) cell line. CHOhERG cells were used for patch-clamp (voltage-clamp, whole-cell) experiments. Cells were stimulated by a voltage pattern to activate hERG channels and conduct IKhERG currents (rapid delayed outward rectifier potassium current of the hERG channel). […] Thereafter, the test compound was added to the preparation at increasing concentrations. For each concentration, an attempt was made to reach a steady-state effect, usually, this was achieved within 3-10 min at which time the next highest concentration was applied. The amplitude and kinetics of IKhERG are recorded in each concentration of the drug which were compared to the control values (taken as 100%). (references: Redfern W S, Carlsson L, Davis A S, Lynch W G, MacKenzie I, Palethorpe S, Siegl P K, Strang I, Sullivan A T, Wallis R, Camm A J, Hammond T G. 2003; Relationships between preclinical cardiac electrophysiology, clinical QT interval prolongation and torsade de pointes for a broad range of drugs: evidence for a provisional safety margin in drug development. Cardiovasc. Res. 58:32-45, Sanguinetti M C, Tristani-Firouzi M. 2006; hERG potassium channels and cardiac arrhythmia. Nature 440:463-469, Webster R, Leishman D, Walker D. 2002; Towards a drug concentration effect relationship for QT prolongation and torsades de pointes. Curr. Opin. Drug Discov. Devel. 5:116-26).

[2] = human, CHO cells stably expressing hERG, read-out: hERG IC20

hERG channel, sequence (Q12809 whole entry): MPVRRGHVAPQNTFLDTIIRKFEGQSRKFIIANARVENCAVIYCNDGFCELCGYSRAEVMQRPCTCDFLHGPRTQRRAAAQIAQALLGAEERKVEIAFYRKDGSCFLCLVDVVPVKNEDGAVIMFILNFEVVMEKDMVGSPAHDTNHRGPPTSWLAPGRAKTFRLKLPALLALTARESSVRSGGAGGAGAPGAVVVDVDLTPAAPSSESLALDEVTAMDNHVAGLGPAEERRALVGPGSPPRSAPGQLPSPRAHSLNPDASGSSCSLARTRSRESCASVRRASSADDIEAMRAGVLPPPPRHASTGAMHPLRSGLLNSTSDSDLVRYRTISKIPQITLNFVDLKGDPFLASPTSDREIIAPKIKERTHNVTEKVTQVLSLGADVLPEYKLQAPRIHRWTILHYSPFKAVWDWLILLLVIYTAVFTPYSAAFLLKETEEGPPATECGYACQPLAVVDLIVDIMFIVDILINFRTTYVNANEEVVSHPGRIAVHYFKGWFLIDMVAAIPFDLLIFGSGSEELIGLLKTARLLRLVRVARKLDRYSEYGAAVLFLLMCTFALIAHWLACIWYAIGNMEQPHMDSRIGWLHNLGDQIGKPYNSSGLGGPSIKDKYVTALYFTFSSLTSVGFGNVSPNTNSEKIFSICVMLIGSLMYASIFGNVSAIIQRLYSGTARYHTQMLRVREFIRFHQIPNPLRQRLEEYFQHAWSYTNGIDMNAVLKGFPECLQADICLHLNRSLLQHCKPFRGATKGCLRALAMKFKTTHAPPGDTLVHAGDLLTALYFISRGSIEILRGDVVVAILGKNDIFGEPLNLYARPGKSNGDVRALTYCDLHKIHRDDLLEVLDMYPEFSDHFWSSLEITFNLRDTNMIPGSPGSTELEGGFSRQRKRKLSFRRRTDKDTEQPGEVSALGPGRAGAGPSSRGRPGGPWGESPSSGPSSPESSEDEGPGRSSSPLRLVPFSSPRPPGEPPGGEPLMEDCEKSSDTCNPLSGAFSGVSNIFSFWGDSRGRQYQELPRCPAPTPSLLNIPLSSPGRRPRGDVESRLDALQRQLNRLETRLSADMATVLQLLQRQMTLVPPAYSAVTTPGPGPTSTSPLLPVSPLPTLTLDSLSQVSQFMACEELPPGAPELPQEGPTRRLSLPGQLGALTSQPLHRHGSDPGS
human TLR7, sequence (Q9NYK1 27-1049): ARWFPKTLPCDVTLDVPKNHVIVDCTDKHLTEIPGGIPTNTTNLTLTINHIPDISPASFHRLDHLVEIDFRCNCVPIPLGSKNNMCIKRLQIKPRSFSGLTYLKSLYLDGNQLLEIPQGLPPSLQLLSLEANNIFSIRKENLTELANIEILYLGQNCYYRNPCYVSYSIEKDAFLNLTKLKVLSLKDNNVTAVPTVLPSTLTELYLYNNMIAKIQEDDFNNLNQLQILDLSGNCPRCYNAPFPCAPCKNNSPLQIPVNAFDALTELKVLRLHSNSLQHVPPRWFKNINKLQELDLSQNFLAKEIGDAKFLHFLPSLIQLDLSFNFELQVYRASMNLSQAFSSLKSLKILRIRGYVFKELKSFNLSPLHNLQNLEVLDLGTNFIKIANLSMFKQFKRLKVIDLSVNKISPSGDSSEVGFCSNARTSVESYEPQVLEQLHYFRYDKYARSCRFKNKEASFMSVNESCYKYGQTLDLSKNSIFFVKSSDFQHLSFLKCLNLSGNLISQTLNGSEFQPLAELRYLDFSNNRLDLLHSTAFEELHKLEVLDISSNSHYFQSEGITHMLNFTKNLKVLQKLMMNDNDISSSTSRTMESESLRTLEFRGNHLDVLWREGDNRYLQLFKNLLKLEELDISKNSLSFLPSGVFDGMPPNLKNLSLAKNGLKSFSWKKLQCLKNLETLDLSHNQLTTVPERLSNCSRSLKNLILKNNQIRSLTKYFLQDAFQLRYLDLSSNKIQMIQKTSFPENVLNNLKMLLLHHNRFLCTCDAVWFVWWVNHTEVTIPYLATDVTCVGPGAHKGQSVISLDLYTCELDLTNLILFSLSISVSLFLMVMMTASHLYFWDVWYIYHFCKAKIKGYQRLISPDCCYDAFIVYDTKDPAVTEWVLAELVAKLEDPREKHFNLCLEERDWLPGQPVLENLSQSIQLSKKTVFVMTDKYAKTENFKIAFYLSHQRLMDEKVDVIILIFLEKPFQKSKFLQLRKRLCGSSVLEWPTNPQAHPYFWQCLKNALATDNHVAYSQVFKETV

SMILES | Human Liver Microsome Clearance [1] | EC50 (human TLR7) | IC50 (hERG channel) | IC20 (hERG channel; human) | Safety ratio (hERG IC20/EC50) (hERG channel) | IC20 (hERG channel; read-out: hERG IC20) | IC20 (hERG channel; [2]) | IC50 (hERG channel; read-out: hERG IC50)
CCCS(=N)(=O)c1nc(N)c2[nH]c(=O)n(Cc3ccc(C)nc3)c2n1 (stereo not drawn) [Example 34, 6-Amino-9-[(6-methyl-3-pyridyl)methyl]-2-(propylsulfonimidoyl)-7H-purin-8-one] | <6.15 mL/min/kg | 0.03 µM | > 20 µM | > 10 µM | – | – | – | –
CCCS(=N)(=O)c1nc(N)c2[nH]c(=O)n(Cc3ccccc3)c2n1 (single isomer, unassigned) [Example 4-B, 6-Amino-9-benzyl-2-(propylsulfonimidoyl)-7H-purin-8-one] | – | – | – | – | >116 | > 10 µM | – | –
CCCS(=N)(=O)c1nc(N)c2[nH]c(=O)n(Cc3ccc(Cl)cc3)c2n1 (stereo not drawn) [Example 9, 6-Amino-9-[(4-chlorophenyl)methyl]-2-(propylsulfonimidoyl)-7H-purin-8-one] | – | 0.012 µM | – | – | >833 | – | > 10 µM | > 20 µM
CCCS(=N)(=O)c1nc(N)c2[nH]c(=O)n(Cc3ccc(C)cc3)c2n1 (single isomer, unassigned) [Example 29-A, 6-Amino-2-(propylsulfonimidoyl)-9-(p-tolylmethyl)-7H-purin-8-one] | <6.15 mL/min/kg | – | – | – | >526 | – | – | –
CCCS(=N)(=O)c1nc(N)c2[nH]c(=O)n(Cc3ccccc3)c2n1 (stereo not drawn) [Example 4, 6-Amino-9-benzyl-2-(propylsulfonimidoyl)-7H-purin-8-one] | <6.15 mL/min/kg | 0.065 µM | – | – | >154 | – | > 10 µM | > 20 µM
CCS(=N)(=O)c1nc(N)c2[nH]c(=O)n(Cc3ccc(Cl)cc3)c2n1 (single isomer, unassigned) [Example 70-B, 6-Amino-9-[(4-chlorophenyl)methyl]-2-(ethylsulfonimidoyl)-7H-purin-8-one] | <6.15 mL/min/kg | – | – | – | – | – | – | –
CCCS(=N)(=O)c1nc(N)c2[nH]c(=O)n(Cc3ccc(F)c(F)c3)c2n1 (stereo not drawn) [Example 27, 6-Amino-9-(3,4-difluorophenylmethyl)-2-(propylsulfonimidoyl)-7H-purin-8-one] | – | 0.036 µM | – | – | >278 | – | > 10 µM | > 20 µM
CCS(=N)(=O)c1nc(N)c2[nH]c(=O)n(Cc3ccc(C)cc3)c2n1 (single isomer, unassigned) [Example 71-A, 6-Amino-2-(ethylsulfonimidoyl)-9-(p-tolylmethyl)-7H-purin-8-one] | <6.15 mL/min/kg | – | – | – | >75 | – | – | –
CCCS(=N)(=O)c1nc(N)c2[nH]c(=O)n(Cc3ccccc3)c2n1 (single isomer, unassigned) [Example 4-A, 6-Amino-9-benzyl-2-(propylsulfonimidoyl)-7H-purin-8-one] | – | 0.067 µM | – | – | >149 | > 10 µM | – | –
CCS(=N)(=O)c1nc(N)c2[nH]c(=O)n(Cc3ccc(Cl)cc3)c2n1 (single isomer, unassigned) [Example 70-A, 6-Amino-9-[(4-chlorophenyl)methyl]-2-(ethylsulfonimidoyl)-7H-purin-8-one] | <6.15 mL/min/kg | – | – | – | – | – | – | –
CCCS(=N)(=O)c1nc(N)c2[nH]c(=O)n(Cc3ccc(C(=O)O)cc3)c2n1 (stereo not drawn) [Example 39, 4-[[6-Amino-8-oxo-2-(propylsulfonimidoyl)-7H-purin-9-yl]methyl]benzoic acid] | <6.15 mL/min/kg | 0.17 µM | – | – | >59 | – | > 10 µM | > 20 µM

Source: patent publication US9708325B2, “Sulfonimidoylpurinone compounds and derivatives for the treatment and prophylaxis of virus infection” (Hoffmann-La Roche Inc., priority 2015, dated 2017)
